For the data set the following is noted: Crystal 2; visual observation.

Numbers after ± are expanded uncertainties.

On to `CC(C)(C)P(=O)(O)C(C)(C)C` [di-tert-butylphosphinic acid], for which the Triple point temperature worked out at 37.8 ± 0.5 K.

Source of the values: the NIST ThermoML archive (doi:10.1016/j.tca.2010.12.008).
